Experimental data from patent publication EP1147080B1 (Wyeth Holdings Corporation, priority 1999, dated 2000).

Assays:
MMP-13 = MMP-13 (Homo sapiens, UniProt P45452); experiment: MMP-13 inhibition (thiopeptide or fluorescent peptide substrate); format: biochemical; conditions: read-out: MMP13; for inhibition at 1 µM: % at 1 um (specified in cell); for inhibition at 10 µM: % @ 10µM per footnote a
Excerpt: Alternatively, a fluorescent peptide substrate is used.

THP-1 cells = experiment: Human monocytic THP-1 cell differentiation assay for soluble proteins (THP soluble protein assay), LPS-stimulated, TNF-α ELISA; format: cell-based; conditions: Homo sapiens, THP-1; at 3 uM; percent change from vehicle positive control; read-out: TNFalpha at 3 uM) THP (percent change)
Excerpt: Mitogenic stimulation of THP-1 cells cause differentiation into macrophage like cells with concomitant secretion of tumor necrosis factor (TNF-a) and TNF receptor (TNF-R p75/80 and TNF-R p55/60) and Interleukin-8 (IL-8), among other proteins. In addition, non-stimulated THP-1 cells shed both the p75/80 and the p55/60 receptors over time. The release of membrane bound TNF-a and possibly TNF-R p75/80 and TNF-R p55/60, but not IL-8, is mediated by an enzyme called TNF-α converting enzyme or TACE.
THP-1 cells (from ATCC) are a human monocytic cell line which were obtained from the peripheral blood of a person with acute monocytic leukemia. They can be grown in culture and differentiated into macrophage like cells by stimulation with mitogens.
Each vial of cells are cultured for about two weeks prior to being used for an assay and then are used for only 4 to 6 weeks to screen compounds.
Cell exposure to DMSO was limited to 0.1 % final concentration. […] Compounds can be evaluated for their effect on basal (non-stimulated) shedding of the receptors by replacing the LPS with […] of THP-1 media. Plates are placed into an incubator set at 5% CO2 and at 37°C. After 4 hours of incubation, […] of tissue culture supernatant (TCS) is removed for use in an TNF-α ELISA. Following 24 hours of incubation, […] of TCS is removed and used for analysis in TNF-R p75/80, TNF-R p55/60 and IL-8 ELISAs.
In addition, at the 24 hours timepoint, and the cells for each treatment group are collected by resuspension in 500 µl/well of THP-1 media and transferred into a FACS tube. […] The samples are run on a Becton Dickinson FaxCaliber FLOW cytometry machine and the amount of dye taken up by each cell is measured in the high red wavelength (FL3). Only cells with compromised membranes (dead or dying) can take up PI. The percent of live cells is calculated by the number of cells not stained with PI, divided by the total number of cells in the sample. The viability values calculated for the drug treated groups were compared to the viability value calculated for the vehicle treated mitogen stimulated group ("vehicle positive control") to determine the "percent change from control". This "percent change from control" value is an indicator of drug toxicity.
The quantity of soluble TNF-α, TNF-R p75/80 and TNF-R p55/60 and IL-8 in the TCS of the THP-1 cell cultures are obtained with commercially available ELISAs from R&D Systems, by extrapolation from a standard curve generated with kit standards. The number of cells that either take up or exclude PI are measured by the FLOW cytometry machine and visualized by histograms using commercially available Cytologic software for each treatment group including all controls.
Biological variability in the magnitude of the response of THP-1 cell cultures requires that experiments be compared on the basis of percent change from "vehicle positive control" for each drug concentration. Percent change in each soluble protein evaluated from the "vehicle positive control" was calculated for each compound concentration with the following formula: % Change =(pg/ml (compound) - pg/ml (veh pos control))/(pg/ml (veh pos control) - pg/ml (veh neg control))x 100 [formula]
For the soluble protein (TNF-a, p75/80, p55/60, IL-8) studies under stimulated conditions, the mean pg/ml of duplicate wells were determined and the results expressed as percent change from "vehicle positive control". For the soluble protein (p75/80 and p55/60 receptors) studies under non-stimulated conditions, the mean pg/ml of duplicate wells were determined and the results expressed as percent change from […] utilizing the following formula: % Change =(pg/ml (compound neg control) - pg/ml (veh neg control))/(pg/ml (veh neg control))X 100 [formula]
IC50 values for each compound are calculated by non-linear regression analysis using customized software utilizing the JUMP statistical package.

MMP-1 = target: T1, MMP-1 (Homo sapiens, UniProt P03956); experiment: MMP-1 inhibition (thiopeptide or fluorescent peptide substrate); conditions: read-out: MMP1
T1 sequence (P03956 100-469): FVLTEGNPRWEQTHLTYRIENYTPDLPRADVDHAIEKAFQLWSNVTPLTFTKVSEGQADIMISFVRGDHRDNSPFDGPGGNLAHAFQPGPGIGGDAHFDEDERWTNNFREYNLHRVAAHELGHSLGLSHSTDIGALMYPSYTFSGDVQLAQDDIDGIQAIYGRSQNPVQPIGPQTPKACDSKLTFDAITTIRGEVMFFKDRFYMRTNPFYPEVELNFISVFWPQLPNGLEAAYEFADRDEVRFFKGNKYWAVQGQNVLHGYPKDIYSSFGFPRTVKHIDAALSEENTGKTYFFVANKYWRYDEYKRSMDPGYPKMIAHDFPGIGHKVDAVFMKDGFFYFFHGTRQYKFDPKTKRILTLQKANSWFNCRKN
Method: The enzyme activity is measured by the rate of the color increase. The thiopeptide substrate is made up fresh as a 20 mM stock in 100% DMSO and the DTNB is dissolved in 100% DMSO as a 100 mM stock and stored in the dark at room temperature. Both the substrate and DTNB are diluted together to 1 mM with substrate buffer (50 mM HEPES pH 7.5, 5 mM CaCl2) before use. The stock of enzyme is diluted with buffer (50 mM HEPES, pH 7.5, 5 mM CaCl2, 0.02% Brij) to the desired final concentration.
Alternatively, a fluorescent peptide substrate is used. In this test procedure, the peptide substrate contains a fluorescent group and a quenching group. Upon cleavage of the substrate by an MMP, the fluorescence that is generated is quantitated on the fluorescence plate reader. The assay is run in HCBC assay buffer (50mM HEPES, pH 7.0, 5 mM Ca^+2, 0.02% Brij, 0.5% Cysteine), with human recombinant MMP-1, MMP-9, or MMP-13. The substrate is dissolved in methanol and stored frozen in 1 mM aliquots. For the assay, substrate and enzymes are diluted in HCBC buffer to the desired concentrations. Compounds are added to the 96 well plate containing enzyme and the reaction is started by the addition of substrate.
For either the thiopeptide or fluorescent peptide test procedures, the slope of the line is calculated and represents the reaction rate. […] The mean (x±sem) of the control rate is calculated and compared for statistical significance (p<0.05) with drug-treated rates using Dunnett's multiple comparison test.

[1] = target: TNF-α converting enzyme (TACE) (Homo sapiens, UniProt P78536); experiment: Test procedure for measuring TACE inhibition (fluorescent peptidyl substrate); format: biochemical; conditions: for IC50: second table, IC50 (nM) per footnote a; for inhibition at 10 µM: % @ 10µM per footnote a, read-out: TACE IC50
Sequence of TNF-α converting enzyme (TACE) (P78536 215-824): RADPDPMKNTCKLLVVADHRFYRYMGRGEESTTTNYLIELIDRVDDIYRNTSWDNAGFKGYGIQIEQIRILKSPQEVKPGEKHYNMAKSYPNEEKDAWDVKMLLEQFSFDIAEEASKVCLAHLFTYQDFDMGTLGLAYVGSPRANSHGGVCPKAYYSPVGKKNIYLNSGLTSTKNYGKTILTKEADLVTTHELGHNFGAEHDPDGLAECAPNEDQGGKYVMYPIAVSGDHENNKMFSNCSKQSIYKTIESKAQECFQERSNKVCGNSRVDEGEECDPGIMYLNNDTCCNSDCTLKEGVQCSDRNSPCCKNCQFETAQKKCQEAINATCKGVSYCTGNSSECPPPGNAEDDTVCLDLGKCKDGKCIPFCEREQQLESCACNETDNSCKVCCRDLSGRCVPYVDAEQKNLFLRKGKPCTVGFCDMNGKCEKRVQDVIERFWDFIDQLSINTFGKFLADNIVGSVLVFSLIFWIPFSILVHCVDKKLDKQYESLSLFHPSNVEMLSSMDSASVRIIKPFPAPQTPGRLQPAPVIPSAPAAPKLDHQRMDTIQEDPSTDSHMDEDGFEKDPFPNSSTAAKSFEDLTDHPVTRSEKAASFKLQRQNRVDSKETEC

| inhibition at 1 µM (MMP-13) [%] | inhibition at 10 µM (MMP-1) [%] | IC50 [1] [nM] | inhibition at 10 µM (MMP-13) [%] | inhibition at 10 µM [1] [%] | SMILES | inhibition at 3 µM (THP-1 cells) [%] |
| --- | --- | --- | --- | --- | --- | --- |
| 45.1 | 4.11 | 141 |  |  | CC#CCOc1ccc([S+]([O-])C(C(=O)NO)c2ccc3ccccc3c2)cc1 (stereo not drawn) [Example 115, 2-{[4-(2-butynyloxy)phenyl]sulfinyl}-2-(2-naphthyl)-N-hydroxyacetamide] | 11 |
|  | 9 | 106 | 32 |  | CC#CCOc1ccc([S+]([O-])[C@H](C(=O)NO)c2cccc(Br)c2)cc1 (single isomer, unassigned) [Example 105] | -4 |
|  | 7 |  | 17 | 15.6 | CC#CCOc1ccc([S+]([O-])C(C(=O)NO)c2cccc3ccccc23)cc1 (stereo not drawn) [Example 93, 2-{[4-(2-Butynyloxy)phenyl]sulfinyl}-N-hydroxy-2-(1-naphthyl)acetamide] | -1 |
|  | 6 | 63 | 54 |  | CC#CCOc1ccc([S+]([O-])[C@@H](C(=O)NO)c2cccc(Br)c2)cc1 (single isomer, unassigned) [Example 104] | 4 |

The next lines start with the molecule.

| SMILES | inhibition at 1 µM (MMP-13) [%] | inhibition at 10 µM (MMP-1) [%] | IC50 [1] [nM] | inhibition at 10 µM (MMP-13) [%] | inhibition at 10 µM [1] [%] | inhibition at 3 µM (THP-1 cells) [%] |
| --- | --- | --- | --- | --- | --- | --- |
| CC#CCOc1ccc([S+]([O-])C(C(=O)NO)c2ccc(Cl)cc2)cc1 (mixture of isomers) [Example 81, 2-{[4-(2-butynyloxy)phenyl]sulfinyl}-2-(4-chlorophenyl) N-hydroxyacetamide] | 21.6 | 30.5 | 223 |  |  | 6 |
| CC#CCOc1ccc(S(=O)(=O)C(C(=O)NO)c2ccc(Br)cc2)cc1 (stereo not drawn) [Example 88, 2-(4-bromophenyl)-2-{[4-(2-butynyloxy)phenyl]sulfonyl}-N-hydroxyacetamide] | 21 | 20 | 226 |  |  | 4 |
| CC#CCOc1ccc(SC(C(=O)NO)c2ccc(-c3cccs3)cc2)cc1 (stereo not drawn) [Example 89, 2{[4-(2-butynyloxy)phenyl]sulfanyl}-N-hydroxy-2-[4-(2-thienyl)phenyl]acetamide] |  | 0 | 617 | 5 |  | 2 |
| CC#CCOc1ccc(SC(C(=O)NO)c2cccc(Cl)c2)cc1 (stereo not drawn) [Example 83, 2-{[4-(2-butynyloxy)phenyl]sulfanyl}-2-(3-chlorophenyl)-N-hydroxyacetamide] |  | 9.4 | 133 | 36.4 |  | 0 |
| CC#CCOc1ccc(S(=O)(=O)C(C(=O)NO)C2CCN(C(=O)c3ccccc3)CC2)cc1 (stereo not drawn) [Example 120, 2-(1-benzoyl-4-piperidinyl)-2-{[4-(2-butynyloxy)phenyl]sulfonyl}-N-hydroxyacetamide] | 51 | 24 | 88.5 |  |  | 63 |
| CC#CCOc1ccc(SC(C(=O)NO)c2ccccc2OC)cc1 (stereo not drawn) [Example 98, 2-(2-methoxyphenyl)-2-{[4-(2-butynyloxy)phenyl]sulfanyl}-N-hydroxyacetamide] |  | 23 | 464 | 59 |  | 1 |
| CC#CCOc1ccc(S(=O)(=O)C(C(=O)NO)c2ccc(-c3cccs3)cc2)cc1 (stereo not drawn) [Example 91, 2-{[4-(2-butynyloxy)phenyl]sulfonyl}-N-hydroxy-2-[4-(2-thienyl)phenyl]acetamide] |  | 10 |  | 35 | 48 | 2 |
| CC#CCOc1ccc(S(=O)(=O)C(C(=O)NO)C2CCN(C(=O)OC(C)(C)C)CC2)cc1 (stereo not drawn) [Example 117, Tert-butyl-4-[1-{[4-(2-butynyloxy)phenyl]sulfonyl}-2-(hydroxyamino)-2-oxoethyl]-1-piperidine carboxylate] |  | 22 | 190 | 52 |  | 50 |
